Results taken from paper PMC12589998, “Development and validation of a UHPLC-QqQ-MS/MS method for simultaneous determination of fifteen major components from Oroxyli seed extract in rat plasma and its application in the pharmacokinetic study” (Frontiers in Pharmacology, 2025).
“Also recorded” adds a separate entry of the source.

Legend:
[1] = Pharmacokinetic study in rats after oral administration of OS extract (UHPLC-QqQ-MS/MS of plasma); format: in vivo, rat; settings: for concentration at 0.5 h / AUC(0-t) / AUC(0-inf) / Cmax / half-life / Tmax: male; for concentration at 0.5 h: SD, 3 g/kg, rat plasma collected 0.5 h after oral administration of the OS extract, read-out: Concentration printed in MRM chromatogram of plasma sample (Figure 2C); for AUC(0-t) / AUC(0-inf) / Cmax / half-life / Tmax: rat plasma, oral 3 g/kg OS extract, n = 6, mean ± SD; for AUC(0-t): read-out: AUC(0-t); for AUC(0-inf): read-out: AUC(0-∞); for Cmax: read-out: Cmax; for half-life: read-out: T1/2 (converted); for Tmax: read-out: Tmax
Method: The UHPLC-QqQ-MS/MS system consisted of a 1290 UHPLC and a 6470 mass spectrometer (Agilent Technologies). Chromatographic separation was realized on utilizing an ACQUITY UPLC BEH C18 column (2.1 × 100 mm, 1.7 μm) maintained at 35 °C. The mobile phase consisting of 0.1% formic acid in water (A) and acetonitrile (B) was utilized with the elution program set at 0 min–1 min, 5% B–30% B; 1 min–4 min, 30% B– 50% B; 4 min–8 min, and 50% B–90% B. The injection volume was 5 μL, and the flow rate was 0.3 mL/min. The mass spectrometry parameters in the negative ion mode, gas temperature, flow rate, and nebulizer pressure were 300 °C, 7 L/min, and 35 psi, respectively. The mass spectra properties of the 15 analytes and the IS are illustrated in Table 1.
To 100 μL of the plasma sample, 20 μL of methanol, 20 μL of IS solution (methylparaben, 1 μg/mL), and 5 μL of formic acid were added and vortexed for a duration of 2 min. Subsequently, the mixture underwent extraction with 800 μL of acetonitrile for 3 min. Following 10 min of centrifugation at 12,000 g, the supernatant was collected and evaporated to dryness under N2 to obtain the residue. Finally, the residue was reconstituted in 50% methanol (100 μL) and utilized for analysis.
Before initiating the study, six male SD rats underwent a 12-h fasting period, during which they were granted unrestricted access to water. Then, the rats were administered an oral dose of 3 g/kg of the OS extract, which had been dissolved in 0.5% CMC-Na aqueous solution. Blood samples, approximately 200 μL each, were collected at various time points: before administration and at 0.03, 0.08, 0.17, 0.25, 0.5, 0.75, 1, 2, 4, 6, 8, 10, 12, 24, 36, and 48 h post-administration. Following 10 min of centrifugation at 6,000 g, the resultant samples were stored at −80 °C.
The developed method was effectively applied to study the pharmacokinetics in rats following oral administration of the OS extract. […] This was likely due to their low concentrations in the OS extract. Ultimately, nine components (chrysin, chrysin-7-O-β-D-glucuronide, baicalin, baicalein, oroxin A, oroxin B, oroxylin A, oroxylin A-7-O-β-D-glucuronide, and scutellarein) were successfully fitted with pharmacokinetic parameters. The average plasma concentration–time profiles of these substances are depicted in Figure 3. […] All data were presented as the mean ± standard deviation (Mean ± SD).

[2] = Stability of the analytes in rat plasma samples under storage conditions; format: physicochemical; settings: n = 6
Method: The bioanalytical method validation was evaluated for specificity, linearity, sensitivity, precision and accuracy, recovery, matrix effect, and stability to ensure compliance with the U.S. Food and Drug Administration (FDA) guidance on precise quantitative analysis ([Center for Drug Evaluation and Research of the U.S., 2018]). The assessment of specificity was conducted by comparing the chromatograms obtained from blank plasma, blank plasma spiked with the target components, and samples gathered following the oral administration of OS extract. Calibration curves were constructed by plotting the ratio for the peak area of the analyte to IS versus the concentration, with 1/x^2 serving as the weighting factor. The lower limit of quantification (LLOQ) was defined as the concentration at which a signal to noise ratio of […] 10 was achievable. The evaluation of precision and accuracy involved the analysis of six QC samples, both within a single day and over 3 consecutive days. Accuracy was expressed as the relative error (RE), whereas precision was gauged via relative standard deviation (RSD). Extraction recovery was ascertained by juxtaposing the responses of analytes in extracted samples against those in samples that were spiked post-extraction. The matrix effect was scrutinized by determining the ratio of the responses of the analytes in post-extraction spiked samples to those in the mixed standard solution. The stability of the analytes in plasma samples was explored under diverse conditions: encompassing a 12-h period in an autosampler, a 4-h interval at room temperature, three cycles of freezing–thawing, and a 7-day duration at −80 °C.
The retention times of the analyte peaks were consistent with those in the spiked samples. […] The LLOQs for chrysin, chrysin-7-O-β-D-glucuronide, hispidulin, wogonoside, quercetin, quercetin-7-O-β-D-glucoside, baicalin, baicalein, acacetin, oroxin A, oroxin B, oroxylin A, oroxylin A-7-O-β-D-glucuronide, apigenin, and scutellarein were 1.0, 2.0, 1.0, 0.3, 1.0, 0.1, 9.0, 6.0, 0.3, 6.0, 4.0, 1.0, 2.0, 0.5, and 0.3 ng/mL, respectively. In Supplementary Table S2, the RE for accuracy is between −13.77% and 12.55%, and the RSD for precision is below 14.55% (both intra- and inter-day). […] The matrix effect varied from 60.15% to 115.53%, with RSD values below 10.54%. In Supplementary Table S4, the RSD values for stability of the analytes are found to be lower than 13.98%, meaning that these components were stable under the following conditions: encompassing a 12-h period in an autosampler, a 4-h interval at room temperature, three cycles of freezing and thawing, and a 7-day duration at −80 °C.

[3] = spiked concentration 6400 ng/mL
[4] = rat plasma after oral OS extract
[5] = spiked concentration 1600 ng/mL

O=C(O)[C@H]1O[C@@H](Oc2cc(O)c3c(=O)cc(-c4ccccc4)oc3c2)[C@H](O)[C@@H](O)[C@@H]1O [Chrysin-7-O-β-D-glucuronide, chrysin-7-O-β-D-glucuronide]
concentration at 0.5 h [1]: 0.879 µg/mL
AUC(0-t) [1]: 43.5 µg·h/mL
AUC(0-inf) [1]: 44.9 µg·h/mL
Cmax [1]: 3.32 µg/mL
half-life [1]: 4.79 ± 2.28 h
Tmax [1]: 10 ± 2 h
Measured, -80°C for 7 days ([2]; spiked concentration 40 ng/mL): 37.32 ± 1.14 ng/mL
Measured, Autosampler for 12 h ([2]; spiked concentration 40 ng/mL): 39.57 ± 2.48 ng/mL
Measured, Room temperature for 4 h ([2]; spiked concentration 40 ng/mL): 39.19 ± 3.16 ng/mL
Measured, Three freeze-thaw cycles ([2]; spiked concentration 40 ng/mL): 43.49 ± 1.13 ng/mL
Measured, -80°C for 7 days ([2]; spiked concentration 400 ng/mL): 409.88 ± 38.24 ng/mL
Measured, Autosampler for 12 h ([2]; spiked concentration 400 ng/mL): 419.16 ± 29.59 ng/mL
Measured, Room temperature for 4 h ([2]; spiked concentration 400 ng/mL): 419.25 ± 24.55 ng/mL
Measured, Three freeze-thaw cycles ([2]; spiked concentration 400 ng/mL): 402.45 ± 17.08 ng/mL
Measured, -80°C for 7 days [2, 3]: 6210.06 ± 535.52 ng/mL
Measured, Autosampler for 12 h [2, 3]: 5954.05 ± 243.71 ng/mL
Measured, Room temperature for 4 h [2, 3]: 6145.55 ± 285.25 ng/mL
Measured, Three freeze-thaw cycles [2, 3]: 6316.77 ± 188.36 ng/mL

COc1c(O[C@@H]2O[C@H](C(=O)O)[C@@H](O)[C@H](O)[C@H]2O)cc2oc(-c3ccccc3)cc(=O)c2c1O [Oroxylin A-7-O-β-D-glucuronide, oroxylin A-7-O-β-D-glucuronide]
concentration at 0.5 h [1]: 0.061 µg/mL
AUC(0-t) [1]: 11.4 µg·h/mL
AUC(0-inf) [1]: 11.6 µg·h/mL
Cmax [1]: 0.912 ± 0.35 µg/mL
half-life [1]: 7.22 ± 1.04 h
Tmax [1]: 9.6 ± 1.67 h
Shape of plasma concentration-time curve [1, 4]: significant bimodal phenomena; also recorded: clear bimodal phenomena
Measured, -80°C for 7 days ([2]; spiked concentration 10 ng/mL): 9.25 ± 0.47 ng/mL
Measured, Autosampler for 12 h ([2]; spiked concentration 10 ng/mL): 9.44 ± 1.32 ng/mL
Measured, Room temperature for 4 h ([2]; spiked concentration 10 ng/mL): 11.03 ± 0.43 ng/mL
Measured, Three freeze-thaw cycles ([2]; spiked concentration 10 ng/mL): 9.21 ± 0.83 ng/mL
Measured, -80°C for 7 days ([2]; spiked concentration 100 ng/mL): 95.03 ± 7.93 ng/mL
Measured, Autosampler for 12 h ([2]; spiked concentration 100 ng/mL): 98.52 ± 5.58 ng/mL
Measured, Room temperature for 4 h ([2]; spiked concentration 100 ng/mL): 108.86 ± 4.87 ng/mL
Measured, Three freeze-thaw cycles ([2]; spiked concentration 100 ng/mL): 90.02 ± 5.94 ng/mL
Measured, -80°C for 7 days [2, 5]: 1626.95 ± 164.45 ng/mL
Measured, Autosampler for 12 h [2, 5]: 1793.11 ± 46.98 ng/mL
Measured, Room temperature for 4 h [2, 5]: 1799.31 ± 27.98 ng/mL
Measured, Three freeze-thaw cycles [2, 5]: 1550.12 ± 77.94 ng/mL

COc1c(O[C@@H]2O[C@H](C(=O)O)[C@@H](O)[C@H](O)[C@H]2O)cc(O)c2c(=O)cc(-c3ccccc3)oc12 [Wogonoside, wogonoside]
concentration at 0.5 h [1]: 0.011 µg/mL
Plasma levels [1, 4]: too weak to obtain comprehensive pharmacokinetic curves
Measured, -80°C for 7 days ([2]; spiked concentration 2 ng/mL): 1.78 ± 0.17 ng/mL
Measured, Autosampler for 12 h ([2]; spiked concentration 2 ng/mL): 2.07 ± 0.26 ng/mL
Measured, Room temperature for 4 h ([2]; spiked concentration 2 ng/mL): 1.82 ± 0.14 ng/mL
Measured, Three freeze-thaw cycles ([2]; spiked concentration 2 ng/mL): 1.86 ± 0.09 ng/mL
Measured, -80°C for 7 days ([2]; spiked concentration 20 ng/mL): 22.33 ± 0.89 ng/mL
Measured, Autosampler for 12 h ([2]; spiked concentration 20 ng/mL): 22.77 ± 1.13 ng/mL
Measured, Room temperature for 4 h ([2]; spiked concentration 20 ng/mL): 19.87 ± 0.76 ng/mL
Measured, Three freeze-thaw cycles ([2]; spiked concentration 20 ng/mL): 18.01 ± 1.31 ng/mL
Measured, -80°C for 7 days ([2]; spiked concentration 320 ng/mL): 287.53 ± 32.71 ng/mL
Measured, Autosampler for 12 h ([2]; spiked concentration 320 ng/mL): 307.85 ± 37.80 ng/mL
Measured, Room temperature for 4 h ([2]; spiked concentration 320 ng/mL): 327.84 ± 23.82 ng/mL
Measured, Three freeze-thaw cycles ([2]; spiked concentration 320 ng/mL): 310.87 ± 20.44 ng/mL
